Here are results for eleven molecules from ChEMBL document CHEMBL5584257, “Semisynthetic derivatives of the fungal metabolite eupenifeldin via targeting the tropolone hydroxy groups” (Bioorg Med Chem Lett, 2024).

The subject of one data set is MDA-MB-435. Briefly: Cytotoxicity against human MDA-MB-435 cells treated for 72 hrs. It is filed as functional, cell-based. The following applies: MDA-MB-435, 72 h.
The next data set relates to OVCAR-3. As to the kind of experiment: Cytotoxicity against human OVCAR-3 cells treated for 72 hrs. It is filed as functional, cell-based. The following applies: OVCAR-3, 72 h.
A short description of data set [1]: Lipophilicity, logD of compound at pH 7.4. The following applies: buffer. Format: physicochemical.
The nature of data set [2]: Relative solubility of compound by measuring ratio of solubility of compound to solubility of Eupenifeldin. It is filed as physicochemical.
The nature of data set [3]: Aqueous solubility of compound. To be noted: buffer. It is filed as physicochemical.

Values after ≈ are worked out from the molar mass of the structure shown.

Take `Cc1cc(=O)c(O)cc2c1C[C@H]1C[C@H](OC(=O)CCC(=O)O)[C@@]3(C)Oc4cc(O)c(=O)ccc4C[C@H]3CC(C)(C)/C=C/C[C@]1(C)O2`: the 50% inhibitory concentration (IC50) (usually the point on the concentration scale where inhibition reaches its midpoint) is 441 nM in the data set with MDA-MB-435 and 157 nM in the data set with OVCAR-3. The logD – broadly, the decadic logarithm of the distribution of all forms, ionised or not, between an organic phase and buffer at a given pH – in data set [1] (read-out: logD) was determined as 1. Further, the Ratio in data set [2] is 40. Moreover, the solubility (usually how much of the substance goes into solution per volume) in data set [3] turned out to be 66.3 µg/mL (≈ 104 µM).

Take `COCCOC(=O)Oc1cc2c(ccc1=O)C[C@H]1CC(C)(C)/C=C/C[C@]3(C)Oc4cc(OC(=O)OCCOC)c(=O)cc(C)c4C[C@H]3C[C@H](O)[C@@]1(C)O2`: the values for the IC50 with MDA-MB-435 and with OVCAR-3 were 101 nM and more than 250 nM, respectively. Besides, the logD in data set [1] (read-out: logD) came out at 4.6. Further, in data set [2], the Ratio is listed as 0.2.

On to `Cc1cc(=O)c(OC(=O)C2CC2)cc2c1C[C@H]1C[C@H](O)[C@@]3(C)Oc4cc(OC(=O)C5CC5)c(=O)ccc4C[C@H]3CC(C)(C)/C=C/C[C@]1(C)O2`, for which the concentration for half-maximal inhibition (IC50) is 77 nM with MDA-MB-435 and more than 250 nM in the data set with OVCAR-3. Besides, in data set [1] (read-out: logD), the logD was 5.3. For the same molecule, in data set [2], the Ratio is 5 10^-3No_unit.

With `CC(=O)O[C@H]1C(=O)[C@@]2(C)[C@H]([C@H](OC(=O)c3ccccc3)[C@]3(O)C[C@H](OC(=O)[C@H](O)[C@@H](NC(=O)c4ccccc4)c4ccccc4)C(C)=C1C3(C)C)[C@]1(OC(C)=O)CO[C@@H]1C[C@@H]2O` [PACLITAXEL], in the data set on OVCAR-3, the 50% inhibitory concentration (IC50) amounted to 0.1 nM.

For the molecule `COCCOC(=O)Oc1cc2c(c(C)cc1=O)C[C@H]1C[C@H](O)[C@@]3(C)Oc4cc(O)c(=O)ccc4C[C@H]3CC(C)(C)/C=C/C[C@]1(C)O2`, the values for the IC50 in the data set with MDA-MB-435 and with OVCAR-3 were 31 nM and 76 nM, respectively. In addition, the logD in data set [1] (read-out: logD) came out at 4.3. Besides, the Ratio in data set [2] was found to be 0.4.

Regarding `CCN(CC)C(=O)Oc1cc2c(ccc1=O)C[C@H]1CC(C)(C)/C=C/C[C@]3(C)Oc4cc(OC(=O)N(CC)CC)c(=O)cc(C)c4C[C@H]3C[C@H](O)[C@@]1(C)O2`, the IC50 was more than 250 nM in the data set on MDA-MB-435 and 189 nM with OVCAR-3. In addition, the logD in data set [1] (read-out: logD) stood at 5.9. For the same molecule, the Ratio in data set [2] is listed as 2 10^-2No_unit.

For the molecule `Cc1cc(=O)c(OC(=O)C(C)(C)C)cc2c1C[C@H]1C[C@H](O)[C@@]3(C)Oc4cc(OC(=O)C(C)(C)C)c(=O)ccc4C[C@H]3CC(C)(C)/C=C/C[C@]1(C)O2`, the concentration for half-maximal inhibition (IC50) was 80 nM in the data set on MDA-MB-435 and 141 nM with OVCAR-3. Moreover, the logD in data set [1] (read-out: logD) worked out at 6.9. In addition, in data set [2], the Ratio is on record as 6 10^-3No_unit.

In the case of `Cc1cc(=O)c(OCc2ccccc2)cc2c1C[C@H]1C[C@H](O)[C@@]3(C)Oc4cc(OCc5ccccc5)c(=O)ccc4C[C@H]3CC(C)(C)/C=C/C[C@]1(C)O2`, the half-maximal inhibitory concentration (IC50) in the data set on MDA-MB-435 is 97 nM; in the data set on OVCAR-3 it was more than 250 nM. Also, the logD in data set [1] (read-out: logD) was found to be 7.5. For the same molecule, the Ratio in data set [2] is on record as 2 10^-4No_unit.

Consider `CC(=O)Oc1cc2c(ccc1=O)C[C@H]1CC(C)(C)/C=C/C[C@]3(C)Oc4cc(OC(C)=O)c(=O)cc(C)c4C[C@H]3C[C@H](OC(C)=O)[C@@]1(C)O2`, for which the results for the IC50 in the data set with MDA-MB-435 and in the data set with OVCAR-3 were 72 nM and 193 nM, respectively. Further, in data set [1] (read-out: logD), the log distribution coefficient (logD) was 5.5. Moreover, in data set [2], the Ratio is reported as 4 10^-2No_unit.

As for `CC(=O)Oc1cc2c(ccc1=O)C[C@H]1CC(C)(C)/C=C/C[C@]3(C)Oc4cc(OC(C)=O)c(=O)cc(C)c4C[C@H]3C[C@H](O)[C@@]1(C)O2`, the IC50 was 53 nM in the data set with MDA-MB-435 and more than 250 nM in the data set with OVCAR-3. Further, the log distribution coefficient (logD) in data set [1] (read-out: logD) stood at 4.6. In data set [2], the Ratio is 0.1.

On to `Cc1cc(=O)c(OC(=O)N(c2ccccc2)c2ccccc2)cc2c1C[C@H]1C[C@H](O)[C@@]3(C)Oc4cc(OC(=O)N(c5ccccc5)c5ccccc5)c(=O)ccc4C[C@H]3CC(C)(C)/C=C/C[C@]1(C)O2`, for which the results for the IC50 in the data set with MDA-MB-435 and in the data set on OVCAR-3 were more than 250 nM and 228 nM, respectively. In data set [1], this molecule showed a logD of 9.8.
